For test [1], the system named is human melanocyte-keratinocyte co-cultures. Put plainly: EBL/SNA lectin staining of melanocyte-keratinocyte co-cultures. It is filed as cell-based. As to conditions: L-cytidine 25 micromolar, 72 h, vs untreated (FIG. 5).
Description: Primary neonatal normal human keratinocytes (NHKs) (Invitrogen, Life Technologies, Grand Island, N.Y.) were seeded at a density of 5×10^5 cells/well into 4-well collagen coated chamber slides (Fisher Scientific, Waltham, Mass.). Cells were maintained in 1 ml of serum-free keratinocyte growth medium (KGM) (Keratinocyte-SFM, Invitrogen) and incubated for 48 h in 5% CO2 incubator. The complete KGM was prepared by adding KGM Singlequots (Lonza). Darkly pigmented human neonatal epidermal melanocytes (HEM-DP) (Invitrogen) were seeded over keratinocytes at 2.5×10^5 cells/well and incubated for 24 h at 37° C. The KGM was replaced with 1 ml of melanocyte growth medium (MGM) (Invitrogen), and the co-cultures were incubated for another 48 hours. The co-cultures were treated with the inhibitors at indicated concentrations in a final volume of 20 microliter/well in triplicate for 72 h. The cells were gently washed with 1× phosphate buffered saline (PBS) and fixed in 4% Paraformaldehyde (PFA) for 20 minutes at room temperature. […] The slides were air dried and mounted on cover slips and the images were captured in tiff format using fluorescence microscope (Nikon) and analyzed.
The test system of test [2] is melanocyte-keratinocyte co-cultures. Put plainly: Fontana-Masson silver stain for melanin in melanocyte-keratinocyte co-cultures. It is filed as cell-based, human. As to conditions: 50 micromolar, 72 h (FIG. 7). As for the experimental part: Primary neonatal normal human keratinocytes (NHKs) (Invitrogen, Life Technologies, Grand Island, N.Y.) were seeded at a density of 5×10^5 cells/well into 4-well collagen coated chamber slides (Fisher Scientific, Waltham, Mass.). Cells were maintained in 1 ml of serum-free keratinocyte growth medium (KGM) (Keratinocyte-SFM, Invitrogen) and incubated for 48 h in 5% CO2 incubator. The complete KGM was prepared by adding KGM Singlequots (Lonza). Darkly pigmented human neonatal epidermal melanocytes (HEM-DP) (Invitrogen) were seeded over keratinocytes at 2.5×10^5 cells/well and incubated for 24 h at 37° C. The KGM was replaced with 1 ml of melanocyte growth medium (MGM) (Invitrogen), and the co-cultures were incubated for another 48 hours. The co-cultures were treated with the inhibitors at indicated concentrations in a final volume of 20 microliter/well in triplicate for 72 h. The cells were gently washed with 1× phosphate buffered saline (PBS) and fixed in 4% Paraformaldehyde (PFA) for 20 minutes at room temperature.
Silver staining for melanin was performed according to the instructions provided with the Fontana-Masson staining kit (American MasterTech, Lodi, Calif.). Cells grown in collagen-coated chamber slides were fixed in 4% PFA and rinsed with water for 5 minutes to remove traces of PBS. Slides were then placed in ammonical silver solution followed by incubation in solutions of 0.1% gold chloride, 5% sodium thiosulfate, rinsed in running tap water to remove the staining solution, and dehydrated through 3 changes of fresh absolute alcohol. Cleared slides were rinsed through 3 changes of fresh xylene and coverslips were applied with mounting medium.

A further test concerns the target EBL/SNA (Sambucus nigra, UniProt Q41358). Particulars: Shibuya et al, 1987; Kaku et al, 2007; cited from earlier work.
In test [3] the test system is human melanocyte-keratinocyte co-cultures. As to the kind of experiment: Melanin assay (solubilized melanin, spectrophotometry) in melanocyte-keratinocyte co-cultures. Type of test: cell-based. Particulars: for Minimal concentration for >80% inhibition of melanin content: single agents, 72 h, data from FIG. 8A.
Description: Cells were plated on 24-well plates at 2×10^5 cells/well and treated with various inhibitors in triplicate. Media were replaced with fresh inhibitor-containing media every 24 h. After 72 h, cells were lysed with cell lysis buffer (Invitrogen) containing protease inhibitor cocktail and PMSF (phenylmethyl sulfonyl fluoride) and incubated for 20 minutes on ice. […] From the same samples, the supernatants were saved for measurement of dopa oxidase activity and the pellets were evaluated for melanin content.
Melanin was extracted following a previously described procedure (Ni-Komatsu, et al., 2005, Pigment Cell Res 18(6),447-453). […] The melaninextracts (100 μl) were transferred to a 96-well plate and total melanin content quantitated with a M5 Spectramax plate reader (490 nm).
Dose response curves were assessed for Bliss Additivity and synergism as described (Fitzgerald et al., 2006, Nat Chem Biol 2:458-466; Ritz, C. & Streibig, J. C. (2005) Bioassay Analysis using R. J. Statist. Software, Vol 12, Issue 5). For comparisons of melanin content and tyrosinase/dopa oxidase activity in treated vs. untreated cultures, P-values were determined by the Welch Two Sample t-test.

Sequence of EBL/SNA (Q41358 309-570 limits assumed): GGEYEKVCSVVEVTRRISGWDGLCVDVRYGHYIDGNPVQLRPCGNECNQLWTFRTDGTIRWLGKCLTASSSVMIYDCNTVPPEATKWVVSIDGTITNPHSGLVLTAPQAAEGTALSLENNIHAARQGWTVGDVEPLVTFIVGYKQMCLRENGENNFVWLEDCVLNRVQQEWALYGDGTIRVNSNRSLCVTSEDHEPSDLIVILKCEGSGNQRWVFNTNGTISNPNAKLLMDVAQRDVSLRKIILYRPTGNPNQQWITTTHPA
Sequence of EBL/SNA (Q41358 29-289 partner limits assumed): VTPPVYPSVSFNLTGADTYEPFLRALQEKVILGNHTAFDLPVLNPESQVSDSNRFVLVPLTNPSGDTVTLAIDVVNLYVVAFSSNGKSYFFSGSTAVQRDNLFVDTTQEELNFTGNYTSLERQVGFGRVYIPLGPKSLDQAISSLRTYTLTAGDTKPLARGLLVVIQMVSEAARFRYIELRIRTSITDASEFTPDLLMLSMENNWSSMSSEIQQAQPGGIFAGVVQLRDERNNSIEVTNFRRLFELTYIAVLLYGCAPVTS

In the case of `Nc1ccn([C@@H]2O[C@H](CO)[C@@H](O)[C@H]2O)c(=O)n1` [cytidine], the EBL staining result in test [1] is given as “markedly reduced”. For the same compound, the “melanin content (Fontana-Masson silver staining)” value in test [2] is given as “reduced melanin content”.
On to Neu5Ac(α2,3)Gal(β1-4)Glc [3′-SL], for which the “inhibition of EBL-mediated precipitation of glycophorin” value on EBL/SNA is “poor inhibitor”. The “melanin content (Fontana-Masson silver staining)” value in test [2] was “reduced melanin content”. Besides, in test [3] (50 micromolar, 72 h (FIG. 6)), the “melanin content compared to untreated cultures” value is reported as “strongest reduction of the three”. Also, in test [3], the “Minimal concentration for >80% inhibition of melanin content” value amounted to 30 µM.
Turning to Neu5Ac(α2,6)Gal(β1-4)Glc [6′-SL], the “inhibition of EBL-mediated precipitation of glycophorin” value at EBL/SNA is given as “strong inhibitor”. In addition, the “melanin content (Fontana-Masson silver staining)” value in test [2] is “reduced melanin content”. The “Minimal concentration for >80% inhibition of melanin content” value in test [3] came out at 30 µM.
